According to patent US8486456B2, “Itraconazole compositions with improved bioavailability” (Abbott GmbH & Co., KG, priority 2005, dated 2013):

Assays:
[1] = Thermal stability of itraconazole; format: physicochemical; settings: temperatures up to 300° C.
[2] = aqueous media; cited from earlier work

Q: With `CCC(C)n1ncn(-c2ccc(N3CCN(c4ccc(OCC5COC(Cn6cncn6)(c6ccc(Cl)cc6Cl)O5)cc4)CC3)cc2)c1=O` (single isomer, unassigned; (+)) [itraconazole, (+)-cis-4-[4-[4-[4-[[2-(2,4-dichlorophenyl)-2-(1H-1,2,4-triazol-1-yl-methyl)-1,3-dioxolan-4-yl]methoxy]phenyl]-1-piperazinyl]phenyl]-2,4-dihydro-2-(1-methylpropyl)-3H-1,2,4-triazol-3-one] as the compound, how does the thermal stability [1] read?
A: The thermal stability was “thermally very stable”.

Q: What about the solubility [2] of the same compound?
A: The solubility was “practically insoluble”.
